{"source": "patent EP2265599B1", "about": "“CRYSTAL FORM OF PHENYLAMINOPYRIMIDINE DERIVATIVE” (Natco Pharma Limited, priority 2008, dated 2009)", "key": {"ZR71": {"test_system": "ZR71", "experiment": "Western blot analysis for AKT, ERK and Pi3k, ZR71", "type": "cell-based", "description": "(§1) Western blot analysis of 4910, 5310 and U87 glioma cells and MDAMB231 and ZR71 breast cancer cells in the presence of specified concentrations of compounds were assessed as per standard protocols. Cells were treated with AN019, AN024 or Temozolomide at the specified concentrations. 24h after treatment, cells were collected and cell lysates extracted. Equal quantities of proteins were fractionated by SDS-PAGE. The fractionated proteins were blotted on to nylon membranes and immunoprobed for AKT, ERK and Pi3k. Breast cancer cell protein isolates were additionally immunoprobed for EGFR, ErbB1, ErbB2 and ErbB3."}, "Baf3M351T": {"test_system": "Baf3M351T", "experiment": "In vivo anti-leukemic activity, blast cell count in blood smears, Baf3M351T implanted nude mice", "details": "Imatinib 10mg/kg, AN019 20mg/kg, AN024 20mg/kg, oral gavage or ip from day 15; up to day 42", "excerpt": "Blood smears were obtained via the tail vein or via the femoral vein every 6th day and blast cells counted and graphically represented.\nAbdominal swelling and decrease in activity was monitored daily, blood smear taken via the tail vein or the femoral vein every 6th day and H&E stained as per standard protocols. 42 days after implantation, mice were sacrificed and spleens harvested.\nNude mice were intraperitoneally implanted with Baf3 mutant cells (wt, T315I, M351T or E255K). […] Blood was drawn from the femoral vein or tail vein every 6th day and blast cell count determined and graphically represented."}, "5310": {"test_system": "5310", "experiment": "Matrigel invasion assay (modified Boyden chamber), 5310", "type": "cell-based", "details": "cells treated 48 h", "description": "The in vitro invasiveness of 4910, 5310 and U87 glioma cells and MDAMB231 and ZR71 breast cancer cells in the presence of specified concentrations of compounds were assessed using a modified Boyden chamber assay. Cells were treated with these compounds for 48 h. 1x10^6 cells were suspended in 600µl of serum-free medium supplemented with 0.2% BSA and placed in the upper compartment of the transwell chambers (Coming Costar Fischer Scientific Cat #07-200-158, Pittsburgh PA) coated with Matrigel (0.7 mg/ml). The lower compartment of the chamber was filled with 200 µl of serum medium and the cells were allowed to migrate for 24 h. After incubation, the cells were fixed and stained with Hema-3 and quantified as previously described (Mohanam et al. 1993). The migrated cells were imaged microscopically to determine the reduction in invasiveness induced by the compounds of this invention.\nThe in vitro invasiveness of 4910, 5310 and U87 glioma cells and MDAMB231 and ZR71 breast cancer cells in the presence of specified concentrations of compounds were assessed using a modified Boyden chamber assay. Cells were treated with these compounds for 48 h."}, "[1]": {"test_system": "4910 human glioma xenograft cells", "experiment": "Glioma radiation study, intracranially implanted 4910 cells", "type": "in vivo, Nude mice", "description": "Nude mice were intracranially implanted with 4910 human glioma xenograft cells (1x10^6 cells). Ten days after implantation mice were treated with AN019, AN024 or temozolomide with or without radiation (5Gy/week). The experiment was terminated at day 40 post implantation."}, "K562 cells": {"test_system": "K562 cells", "experiment": "Spleenic enlargement and Crk immunocytochemistry of spleen in nude mice implanted with K562 cells", "type": "in vivo", "details": "ip injections", "description": "Spleen and any secondary tumors were harvested, fixed in formaldehyde and paraffin embedded as per standard protocols. Paraffin section were obtained and processed for immunocytochemistry. The rehydrated sections were treated with 0.3% H2O2 to inactivate any native peroxidases prior to immuno-probing. The sections were blocked with filter sterilized (0.22µm) 1% BSA-PBS at room temperature for 1h. Following blocking, the sections were immuno-probed with a human specific anti-Crk monoclonal primary antibody raised in rabbit against a synthetic peptide corresponding to residues in the SH2 domain, near the N-term of human CrkL protein (Abcam, Cambridge, MA, USA) in 1%BSA-PBS overnight. Secondary antibody (anti-rabbit) conjugated to HRP was used to detect the presence of primary antibody. The sections were briefly rinsed three times in PBS solution after immuno-probing with secondary antibody, and DAB HRP substrate was added per manufacture's instructions (Sigma St Louis MO USA). […] For negative controls primary antibody were eliminated. Leukemic mice spleen served as positive controls.\nMice were sacrificed after a decrease in LGI was observed and spleen harvested. […] Control mice also developed random subcutaneous tumors showing Crk expression, indicative of the presence of K562 cells."}, "5310 cells": {"test_system": "5310 cells", "experiment": "Western blot analysis for AKT, ERK and Pi3k, 5310", "type": "cell-based", "description": "as §1"}, "[2]": {"test_system": "K562 luc human leukemia cells", "experiment": "Low dose oral treatment of nude mice implanted with K562 luc cells (luciferase expression)", "type": "in vivo", "details": "oral administration", "description": "Nude mice (nu/nu) were implanted with K562 cells (1x106) normal/luc via tail vein. Five mice were used per group and divided into 24 groups + 2 control. All groups were implanted with K562 normal/luc cells. Of the 24 groups, 12 were used for luciferase studies whereas the other 12 were used for blood smear count studies.\nDrugs were administered by oral gavage (2% gum acacia and 2% SLS in an aqueous suspension)."}}, "note": "Entries after “also recorded” stand apart in the source; their conditions may differ."}
{"smiles": "Cc1ccc(NC(=O)c2cc(C(F)(F)F)cc(C(F)(F)F)c2)cc1Nc1nccc(-c2cccnc2)n1", "note": "[AN019, (3,5-bis trifluoromethyl)-N-[4-methyl-3-(4-pyridin-3yl-pyrimidin-2ylamino)-phenyl]-benzamide]", "values": [{"measurement": "PI3k levels", "setting": "ZR71; ZR71 (cell line by context), with and without radiation", "value": "absent in AN019 treatments both with and without radiation"}, {"measurement": "AKT levels", "setting": "ZR71; ZR71, unirradiated and after radiation", "value": "decrease in AKT levels, which was enhanced after radiation"}, {"measurement": "blast cell count in blood smears", "setting": "Baf3M351T", "value": "significant decrease in blast cell count"}, {"measurement": "+Radiation % Invasion", "setting": "5310; 5310, with radiation", "value": 6, "unit": "%"}, {"measurement": "-Radiation % Invasion", "setting": "5310; 5310, without radiation", "value": 5, "unit": "%"}, {"measurement": "intracranial tumours (size, appearance)", "setting": "[1]; with radiation (5Gy/week)", "value": "tumor size was significantly reduced"}, {"measurement": "animals cured / no observable intracranial tumor", "setting": "[1]; with radiation (5Gy/week), terminated at day 40", "value": "6 of 10 animals"}, {"measurement": "intracranial tumours (size, appearance)", "setting": "[1]; without radiation", "value": "showed tumours similar to AN024 treated animals"}, {"measurement": "animals cured / complete absence of intracranial tumours", "setting": "[1]; without radiation, treatment from ten days after implantation, terminated at day 40", "value": "6 of 10 animals"}, {"measurement": "Crk expression in spleen (immunohistochemistry)", "setting": "K562 cells; paraffin sections of spleen", "value": "basal levels of Crk expression; also recorded: only basal level expression of Crk expression comparable to negative control"}, {"measurement": "Spleenic enlargement (gross observation)", "setting": "K562 cells; spleen harvested after decrease in LGI", "value": "did not show any spleenic enlargement"}, {"measurement": "AKT expression levels", "setting": "5310 cells", "value": "decrease in AKT expression levels"}, {"measurement": "Levels of PI3k", "setting": "5310 cells; without and after radiation", "value": "almost undetectable in AN019 treated cells without radiation but reappeared after radiation treatment"}, {"measurement": "luciferase expression", "setting": "[2]; 1mg/kg", "value": "did not induce a decrease in luciferase expression"}, {"measurement": "luciferase expression", "setting": "[2]; 5mg/kg", "value": "caused fixation of leukemia cells at constant expression levels"}, {"measurement": "luciferase expression", "setting": "[2]; 10mg/kg", "value": "caused a decrease in luciferase expression"}, {"measurement": "luciferase expression", "setting": "[2]; 20mg/kg", "value": "caused a decrease in luciferase expression"}]}
